Laboratory results reported in patent publication US12545669B2, “Cycloalkyl and heterocycloalkyl benzisoxazole sulfonamide derivatives” (Pfizer Inc., priority 2019, dated 2026).
Values joined by “and” are separate entries in the source; they are usually repeats but may differ in a detail not shown here. Equal values may be shown once.

These molecules were tested against KAT6A (Homo sapiens (Human), UniProt Q92794) (assay: KAT assay protocol (SAMDI mass spectrometry), KAT6A). Details: 1 μM compound.
KAT6A, sequence (Q92794 whole entry): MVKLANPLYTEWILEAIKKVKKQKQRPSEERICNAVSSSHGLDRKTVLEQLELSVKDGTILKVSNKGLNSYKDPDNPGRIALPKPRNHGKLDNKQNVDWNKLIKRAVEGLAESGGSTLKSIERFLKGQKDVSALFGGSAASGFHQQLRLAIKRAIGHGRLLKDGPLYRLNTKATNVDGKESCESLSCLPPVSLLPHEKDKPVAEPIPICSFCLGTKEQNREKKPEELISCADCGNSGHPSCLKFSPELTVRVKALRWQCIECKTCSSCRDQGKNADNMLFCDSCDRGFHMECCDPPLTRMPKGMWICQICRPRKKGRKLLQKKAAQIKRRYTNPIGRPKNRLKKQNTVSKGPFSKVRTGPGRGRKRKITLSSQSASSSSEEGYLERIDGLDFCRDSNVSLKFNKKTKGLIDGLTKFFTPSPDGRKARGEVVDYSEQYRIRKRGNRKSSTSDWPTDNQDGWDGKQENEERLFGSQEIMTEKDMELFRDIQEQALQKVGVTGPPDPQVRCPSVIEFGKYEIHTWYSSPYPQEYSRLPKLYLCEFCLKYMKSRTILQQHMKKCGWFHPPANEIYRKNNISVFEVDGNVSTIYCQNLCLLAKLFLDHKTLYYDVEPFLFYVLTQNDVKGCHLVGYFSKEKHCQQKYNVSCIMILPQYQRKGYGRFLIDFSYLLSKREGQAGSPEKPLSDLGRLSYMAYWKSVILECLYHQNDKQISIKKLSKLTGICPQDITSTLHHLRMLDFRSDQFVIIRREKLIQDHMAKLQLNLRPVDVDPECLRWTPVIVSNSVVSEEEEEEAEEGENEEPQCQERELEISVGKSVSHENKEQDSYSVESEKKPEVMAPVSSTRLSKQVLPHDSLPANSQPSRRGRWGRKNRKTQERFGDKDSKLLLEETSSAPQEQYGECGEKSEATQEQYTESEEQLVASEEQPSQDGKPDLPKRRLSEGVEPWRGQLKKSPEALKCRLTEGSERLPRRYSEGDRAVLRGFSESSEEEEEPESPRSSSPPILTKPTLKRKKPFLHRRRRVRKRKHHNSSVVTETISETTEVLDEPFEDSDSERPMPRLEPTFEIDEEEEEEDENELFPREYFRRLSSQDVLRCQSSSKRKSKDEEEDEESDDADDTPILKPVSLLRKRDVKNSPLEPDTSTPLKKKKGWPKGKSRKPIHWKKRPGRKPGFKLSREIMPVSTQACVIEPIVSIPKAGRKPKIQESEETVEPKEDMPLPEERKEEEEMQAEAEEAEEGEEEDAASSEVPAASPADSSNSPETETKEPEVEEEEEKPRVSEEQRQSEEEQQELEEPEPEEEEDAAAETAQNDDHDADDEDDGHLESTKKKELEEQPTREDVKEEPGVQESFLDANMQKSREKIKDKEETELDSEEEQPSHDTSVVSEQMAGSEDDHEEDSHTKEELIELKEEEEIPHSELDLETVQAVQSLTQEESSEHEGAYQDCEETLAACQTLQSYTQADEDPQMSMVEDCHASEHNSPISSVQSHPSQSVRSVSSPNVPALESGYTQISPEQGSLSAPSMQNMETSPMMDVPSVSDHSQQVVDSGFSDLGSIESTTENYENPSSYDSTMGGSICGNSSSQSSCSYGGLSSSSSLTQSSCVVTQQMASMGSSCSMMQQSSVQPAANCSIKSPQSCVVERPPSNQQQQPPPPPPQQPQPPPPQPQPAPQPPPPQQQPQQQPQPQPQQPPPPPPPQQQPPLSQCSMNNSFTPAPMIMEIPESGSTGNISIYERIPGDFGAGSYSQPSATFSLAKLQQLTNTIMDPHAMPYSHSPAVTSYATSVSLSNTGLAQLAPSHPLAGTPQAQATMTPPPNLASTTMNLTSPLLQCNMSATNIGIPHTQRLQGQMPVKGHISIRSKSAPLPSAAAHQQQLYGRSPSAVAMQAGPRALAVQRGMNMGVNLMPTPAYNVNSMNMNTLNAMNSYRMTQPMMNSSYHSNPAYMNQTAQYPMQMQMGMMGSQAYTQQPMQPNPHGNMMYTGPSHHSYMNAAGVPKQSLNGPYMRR
Format: biochemical
Description: Biological Assay Section 1 KAT Assay Protocol:
A. Compound Preparation • 1. Prepare 10 mM stock solutions in 100% DMSO from solid material • 2. Serial dilute 10 mM, 1 mM or 0.1 mM compound stocks 3-fold in 100% DMSO for 11-point dose response
B. Reagent Preparation • 1. Prepare 1× assay buffer containing 10 mM Tris HCL pH 8.0, 2.5 mM NaCl, 0.5 mM EDTA, 0.005% BSG and 0.02% Tween-20 • 2. Dilute Histone peptide (CPC Scientific) and AcCoA (Sigma) together in assay buffer to 2×. • 3. Dilute KAT enzyme in assay buffer to 2×.
C. Enzyme Reaction • 1. Final reaction conditions for each KAT assay in a 20 ul assay reaction volume: • i. […] Add 0.5 ul of diluted compound to the assay plate (384-well V-bottom polypropylene plates) or 0.5 ul of DMSO for control wells. • 3. Add 10 ul of 2× Histone peptide/2× AcCoA mix to the assay plate. • 4. Add 10 ul of 2× enzyme to the assay plate. • 5. Stop the reaction after the indicated time with the addition of 2 ul of 5% formic acid • 6. Each reaction was analyzed using self-assembled monolayer desorption/ionization time-of-flight mass spectrometry (Mrksich, Milan (2008) Mass Spectrometry of Self-Assembled Monolayers: A New Tool for Molecular Surface Science ACS Nano 2008 2 (1), 7-18; SAMDI Tech, Inc. (Chicago, IL)). • 7. Area under the curve (AUC) for both substrate and product peaks was determined for KAT6A at M.W. 2723 [Substrate+H]^+ and 2765 [Product+H]^+ with a +/−1 Da tolerance, respectively. • 8. Percent conversion to product was calculated by: AUCProduct/(AUCSubstrate+AUCProduct).
D. Data Analysis • 1. IC50 values were determined by fitting the % conversion at each inhibitor concentration to the 4-parameter IC50 equation using Pfizer proprietary curve fitting software. • 2. Ki values were determined by fitting the % conversion at each inhibitor concentration to the Morrison equation for tightbinding competitive inhibitors using Pfizer proprietary curve fitting software. Materials
KAT enzymes were expressed using a baculovirus expression system and purified at Pfizer, La Jolla. Histone H3 (1-21) peptide ([…], SEQ ID NO:3) was purchased from CPC Scientific (Sunnyvale, CA). Acetyl coenzyme A was purchased from Sigma-Aldrich (St. Louis, MO). All other biochemical reagents were purchased from Sigma-Aldrich or ThermoFisher Scientific (Waltham, MA).
[…] 10 ul of 2× Histone peptide/AcCoA mix was added to a 384-well V-bottom polypropylene assay plate containing 0.5 ul of serially diluted test compound in 100% dimethyl sulfoxide (DMSO). To start the reaction, 10 ul of 2× enzyme solution was added to the assay plate. KAT assays were terminated after 30-60 minutes with the addition of 2 ul of 5% formic acid. KAT6A used histone H3 (1-21) peptide. The final enzyme concentration for KAT6A was 15 nM. Each reaction was analyzed using self-assembled monolayer desorption/ionization time-of-flight mass spectrometry (Mrksich, Milan (2008) Mass Spectrometry of Self-Assembled Monolayers: A New Tool for Molecular Surface Science ACS Nano 2008 2 (1), 7-18; SAMDI Tech, Inc. (Chicago, IL)).
Area under the curve (AUC) for both substrate and product peaks was determined for KAT6A at M.W. 2723 [Substrate+H]^+ and 2765 [Product+H]^+ with a +/−1 Da tolerance, respectively. Percent conversion to product was calculated by: AUCProduct/(AUCSubstrate+AUCProduct). IC50 values were determined by fitting the % conversion at each inhibitor concentration to the 4-parameter IC50 equation using Pfizer proprietary curve fitting software. Ki values were determined by fitting the % conversion at each inhibitor concentration to the Morrison equation for tightbinding competitive inhibitors using Pfizer proprietary curve fitting software.

Structure (SMILES)	inhibition at 1 µM [%]
COc1cc(Cn2cccn2)cc2onc(NS(=O)(=O)CC3CC34CC4)c12 (centres unmarked) [Example 57]	104
COc1cc(Cn2cccn2)cc2onc(NS(=O)(=O)CCCC3CC3)c12 [Example 58]	87
COc1cc(Cn2cccn2)cc2onc(NS(=O)(=O)C3CCCCCC3)c12 [Example 59]	48
COc1cc(Cn2cccn2)cc2onc(NS(=O)(=O)CC3CC(C)C3)c12 (centres unmarked) [Example 60]	42
COc1cc(Cn2cccn2)cc2onc(NS(=O)(=O)CC3(C)CCCC3)c12 [Example 61]	55
COc1cc(Cn2cccn2)cc2onc(NS(=O)(=O)C3CC(C)CC(C)C3)c12 (centres unmarked) [Example 62]	97
COc1cc(Cn2cccn2)cc2onc(NS(=O)(=O)CC3CCCCC3(C)C)c12 (centres unmarked) [Example 63]	48
COc1cc(Cn2cccn2)cc2onc(NS(=O)(=O)CC3C[C@@H]4[C@H](C3)C4(F)F)c12 (some centres unmarked) [Example 64]	92
COc1cc(Cn2cccn2)cc2onc(NS(=O)(=O)CC3(C(F)F)CCCC3)c12 [Example 65]	95
COc1cc(Cn2cccn2)cc2onc(NS(=O)(=O)CC3CC3(F)F)c12 (centres unmarked) [Example 66]	88
COc1cc(Cn2cccn2)cc2onc(NS(=O)(=O)CC34CCC(CC3)C4)c12 [Example 67]	104
COc1cc(Cn2cccn2)cc2onc(NS(=O)(=O)CC3CC(OC)C3)c12 (centres unmarked) [Example 69]	78
COc1cc(Cn2cccn2)cc2onc(NS(=O)(=O)CC(OC)C3CCCC3)c12 (centres unmarked) [Example 70]	80
COc1cc(Cn2cccn2)cc2onc(NS(=O)(=O)CC3(OC)CCCC3)c12 [Example 71]	72
COc1cc(Cn2cccn2)cc2onc(NS(=O)(=O)C3CCCC3C)c12 (centres unmarked) [Example 72]	70
COc1cc(Cn2cccn2)cc2onc(NS(=O)(=O)C3CC(C)C3)c12 (centres unmarked) [Example 73]	96
COCC1(S(=O)(=O)Nc2noc3cc(Cn4cccn4)cc(OC)c23)CCC1 [Example 74]	92
COc1cc(Cn2cccn2)cc2onc(NS(=O)(=O)CC3C(C)(C)C3(F)F)c12 (centres unmarked) [Example 75]	91
COc1cc(Cn2cccn2)cc2onc(NS(=O)(=O)CC3(C(F)F)CCC3)c12 [Example 76]	90
COc1cc(Cn2cccn2)cc2onc(NS(=O)(=O)CCC3CC3(F)F)c12 (centres unmarked) [Example 78]	77
COc1cc(Cn2cccn2)cc2onc(NS(=O)(=O)CC3CCC3(F)F)c12 (centres unmarked) [Example 79]	106
COc1cc(Cn2cccn2)cc2onc(NS(=O)(=O)C3CCC(=O)CC3)c12 [Example 80]	60
COc1cc(Cn2cccn2)cc2onc(NS(=O)(=O)C3(C)CCC3)c12 [Example 81]	41
COc1cc(Cn2cccn2)cc2onc(NS(=O)(=O)C3CCC(C)CC3)c12 (centres unmarked) [Example 82]	61
COc1cc(Cn2cccn2)cc2onc(NS(=O)(=O)[C@H]3CCCC[C@H]3OC)c12 [Example 83]	85
COc1cc(Cn2cccn2)cc2onc(NS(=O)(=O)C3CC(C)(C)C3)c12 [Example 84]	62
COc1cc(Cn2cccn2)cc2onc(NS(=O)(=O)CC3CN(S(C)(=O)=O)C3)c12 [Example 85]	36

Structure (SMILES)	inhibition at 1 µM [%]
COc1cc(Cn2cccn2)cc2onc(NS(=O)(=O)CC3CC(C)(C)OC3(C)C)c12 (centres unmarked) [Example 86]	77
COc1cc(Cn2cccn2)cc2onc(NS(=O)(=O)C3CCCOC3)c12 (centres unmarked) [Example 87]	73
COc1cc(Cn2cccn2)cc2onc(NS(=O)(=O)C3CCOC(C)C3)c12 (centres unmarked) [Example 89]	84
COc1cc(Cn2cccn2)cc2onc(NS(=O)(=O)C3COC(C)(C)C3)c12 (centres unmarked) [Example 90]	83
COc1cc(Cn2cccn2)cc2onc(NS(=O)(=O)[C@@H]3CCCN(C(=O)OCc4ccccc4)C3)c12 [Example 91]	53
COc1cc(Cn2cccn2)cc2onc(NS(=O)(=O)CC3CCN(C(C)=O)CC3)c12 [Example 92]	40
CCOC1(CS(=O)(=O)Nc2noc3cc(Cn4cccn4)cc(OC)c23)CCOCC1 [Example 93]	59
COc1cc(Cn2cccn2)cc2onc(NS(=O)(=O)C3CCN(C(C)=O)CC3)c12 [Example 94]	76
COc1cc(Cn2cccn2)cc2onc(NS(=O)(=O)C3CCOCC3C)c12 (centres unmarked) [Example 96]	58
COc1cc(Cn2cccn2)cc2onc(NS(=O)(=O)C3CCCN(C(C)=O)C3)c12 (centres unmarked) [Example 97]	83
COc1cc(Cn2cccn2)cc2onc(NS(=O)(=O)CC3CCCOC3)c12 (centres unmarked) [Example 98]	41
COc1cc(Cn2cccn2)cc2onc(NS(=O)(=O)C3CCOC3=O)c12 (centres unmarked) [Example 99]	83
COc1cc(Cn2cccn2)cc2onc(NS(=O)(=O)CC3CCC(C)O3)c12 (centres unmarked) [Example 100]	69
COc1cc(Cn2cccn2)cc2onc(NS(=O)(=O)CC3CCCCO3)c12 (centres unmarked) [Example 101]	65
COc1cc(Cn2cccn2)cc2onc(NS(=O)(=O)CCC3CCCO3)c12 (centres unmarked) [Example 102]	70
COc1cc(Cn2cccn2)cc2onc(NS(=O)(=O)CC3CCOC(C)C3)c12 (centres unmarked) [Example 103]	75
COc1cc(Cn2cccn2)cc2onc(NS(=O)(=O)CCCC3CCOCC3)c12 [Example 104]	80
COc1cc(Cn2cccn2)cc2onc(NS(=O)(=O)CC34CCCN(CC3)C4)c12 (centres unmarked) [Example 105]	101
COc1cc(Cn2cccn2)cc2onc(NS(=O)(=O)CCCC3CCOC3)c12 (centres unmarked) [Example 106]	48
COc1cc(Cn2cccn2)cc2onc(NS(=O)(=O)CCC3CCCCO3)c12 (centres unmarked) [Example 108]	67
COc1cc(Cn2cccn2)cc2onc(NS(=O)(=O)CCC3CCOC3)c12 (centres unmarked) [Example 112]	68
COc1cc(Cn2cccn2)cc2onc(NS(=O)(=O)CCC3CCOCC3)c12 [Example 117]	91
COc1cc(Cn2cccn2)cc2onc(NS(=O)(=O)CC3(C)CCOCC3)c12 [Example 118]	56
COc1cc(Cn2cccn2)cc2onc(NS(=O)(=O)CC3CN(C)CCO3)c12 (centres unmarked) [Example 119]	58
COc1cc(Cn2cccn2)cc2onc(NS(=O)(=O)CC3CCCC4(CCC4)O3)c12 (centres unmarked) [Example 120]	35
COc1cc(Cn2cccn2)cc2onc(NS(=O)(=O)CC3CCC4(CCC4)O3)c12 (centres unmarked) [Example 121]	75
COc1cc(Cn2cccn2)cc2onc(NS(=O)(=O)CC3(OC(C)C)CCCO3)c12 (centres unmarked) [Example 122]	85

Same assay, conditions: KAT6A IC50 at 1 μM AcCoA, 1 μM AcCoA

Structure (SMILES)	IC50 [nM]
COc1cc(Cn2cccn2)cc2onc(NS(=O)(=O)CC3(OC(C)C)CCCO3)c12 (centres unmarked) [Example 122]	38.4
COc1cc(Cn2cccn2)cc2onc(NS(=O)(=O)CCOCC3CCC3)c12 [Example 126]	133

Same assay, conditions: KAT6A Ki at 10 μM AcCoA, 10 μM AcCoA; Morrison equation

Structure (SMILES)	Ki
COc1cc(Cn2cccn2)cc2onc(NS(=O)(=O)CC3CC34CC4)c12 (centres unmarked) [Example 57]	13.9 nM
COc1cc(Cn2cccn2)cc2onc(NS(=O)(=O)CC3C[C@@H]4[C@H](C3)C4(F)F)c12 (some centres unmarked) [Example 64]	28 nM
COc1cc(Cn2cccn2)cc2onc(NS(=O)(=O)CC3CCCC3(F)F)c12 (centres unmarked) [Example 77]	15.5 nM
COc1cc(Cn2cccn2)cc2onc(NS(=O)(=O)CCC3CC3(F)F)c12 (centres unmarked) [Example 78]	45.8 nM
COc1cc(Cn2cccn2)cc2onc(NS(=O)(=O)CC3CN(S(C)(=O)=O)C3)c12 [Example 85]	1340 nM
COc1cc(Cn2cccn2)cc2onc(NS(=O)(=O)CC3CC(C)(C)OC3(C)C)c12 (centres unmarked) [Example 86]	107 nM
COc1cc(Cn2cccn2)cc2onc(NS(=O)(=O)C3CCCOC3)c12 (centres unmarked) [Example 87]	100 nM
COc1cc(Cn2cccn2)cc2onc(NS(=O)(=O)[C@H]3CCCN(C(=O)OCc4ccccc4)C3)c12 [Example 88]	99.4 nM
COc1cc(Cn2cccn2)cc2onc(NS(=O)(=O)C3CCOC(C)C3)c12 (centres unmarked) [Example 89]	87.3 nM
COc1cc(Cn2cccn2)cc2onc(NS(=O)(=O)C3COC(C)(C)C3)c12 (centres unmarked) [Example 90]	66.2 nM and 58.1 nM
COc1cc(Cn2cccn2)cc2onc(NS(=O)(=O)CCC3CCCO3)c12 (centres unmarked) [Example 102]	116 nM
COc1cc(Cn2cccn2)cc2onc(NS(=O)(=O)CC3(OC(C)C)CCCO3)c12 (centres unmarked) [Example 122]	14.9 nM
